Assays:
[1] = system: tamoxifen-sensitive ER + breast cancer xenograft; settings: tamoxifen-sensitive ER + breast cancer xenograft models; cited from earlier work
[2] = system: ER; test: [18F]-fluoroestradiol PET (FES-PET) pharmacodynamic response; assay type: in vivo, human
Procedure: (§1) Blood samples were collected for pharmacokinetic assessments. Tumor assessments were performed at screening and every 8 weeks from cycle 1, day 1 (C1D1). Radiographic assessment of objective tumor response or disease progression was based on Response Evaluation Criteria in Solid Tumors (RECIST v1.1). Transvaginal ultrasound scans were performed to monitor endometrial thickness at screening, at every 6 months from C1D1, and at the end of treatment. Imaging with [^18F]-fluoroestradiol positron emission tomography (FES-PET) was performed to quantify ER expression in tumors and to assess for pharmacodynamic response. Further assessment details are provided in Supplementary Methods. […]
Tumor assessments were performed at screening and every 8 weeks from cycle-1, day-1 […]
Imaging with [18F]-fluoroestradiol positron emission tomography
(FES-PET) was performed to quantify ER expression in tumors and to assess for pharmacodynamic response. In phase Ia, FES-PET scans were acquired at screening and on C2D3 at 18-24 hours post the C2D2 dose. Scans were repeated during cycle 3 if the C2D3 scan […]
In phase IIa cohort A1 patients, FES-PET scans were acquired at screening and on C3D3 at 18-24 hours post the C3D2 dose. Scans were repeated at the time of progression if feasible. The mean percent change from baseline in SUVmax (corrected for background activity) for up to five index lesions was calculated for each patient; more details are presented in (1). Optional tumor biopsies were collected at baseline (screening)

[3] = system: CYP2B6; design: method as in printed; settings: stated as reason for dose adjustments; ref not given; cited from earlier work
[4] = system: CYP2C enzymes; design: method as in printed; settings: stated as reason for dose adjustments; ref not given; cited from earlier work
[5] = system: ER and Ki-67; test: Paired tumor biopsies, ER protein levels and Ki-67; assay type: in vivo, human; settings: after one cycle (28 days of treatment); samples from 3 patients only, no conclusions could be drawn
Procedure: CYP2B6 and CYP2C enzymes. No hormonal therapy, chemotherapy, immunotherapy, or experimental anti-cancer medications were permitted during the study.
Blood samples were collected for pharmacokinetic assessment on lead-in day −7 and cycle 2 day 1 (C2D1) at predose (0 hour) and postdose (0.5, 1, 1.5, 2, 3, 4, 6, 8, and 24 hours), (plus at 48 hours postdose for day−7). Full plasma pharmacokinetic profiles were obtained for GDC-0810 and its glucuronide metabolites (acyl-glucuronide and N-glucuronide) using a validated liquid chromatography/ tandem mass spectrometry method, and analyzed using non-compartmental methods for all patients in the dose escalation cohorts.
Tumor assessments were performed at screening and every 8 weeks from cycle-1, day-1 (C1D1). Radiographic assessment of objective tumor response or disease progression was based on Response Evaluation Criteria in Solid Tumors (RECIST v1.1). […] Imaging with [18F]-fluoroestradiol positron emission tomography (FES-PET) was performed to quantify ER expression in tumors and to assess for pharmacodynamic response. […]
In phase IIa cohort A1 patients, FES-PET scans were acquired at screening and on C3D3 at 18-24 hours post the C3D2 dose. […] The mean percent change from baseline in SUVmax (corrected for background activity) for up to five index lesions was calculated for each patient; more details are presented in (1). […]

[6] = Endometrial thickness by transvaginal ultrasound; assay type: in vivo, human
Procedure: as §1
Tumor assessments were performed at screening and every 8 weeks from cycle-1, day-1 (C1D1). Radiographic assessment of objective tumor response or disease progression was based on Response Evaluation Criteria in Solid Tumors (RECIST v1.1). Transvaginal ultrasound scans were performed to monitor endometrial thickness at screening, at every 6 months from C1D1, and at the end of treatment. […]

[7] = system: tamoxifen-resistant ER + breast cancer xenograft; settings: tamoxifen-resistant ER + breast cancer xenograft models; cited from earlier work

CC/C(=C(/c1ccc(/C=C/C(=O)O)cc1)c1ccc2[nH]ncc2c1)c1ccc(F)cc1Cl [GDC-0810]
tumor regression [1]: induced tumor regression
patients with complete or near-complete reduction in FES uptake ([2]; 600 mg QD (fasting and non-fasting)): ≥ 80%
response rates by FES-PET ([2]; 600-mg QD, fasting, and non-fasting, including tumors harboring ESR1 mutations): 80–100%
patients with complete or near complete (> 90%) suppression of FES uptake ([2]; all patients who had FES-PET scans): 78%
FES reduction ([2]; in vivo): > 90%
patients with complete or near complete (> 90%) suppression of FES uptake ([2]; patients with tumors harboring ESR1 mutations): 18 of 26
patients with complete or near complete (> 90%) suppression of FES uptake ([2]; phase IIa dose expansion, baseline and C3D3 scans): 7 of 10
patients with a single lesion considered FES-avid (SUVmax corrected > 1.5) ([2]; phase Ia dose escalation, C2D3): two
patients with complete or near complete (> 90%) suppression of FES uptake ([2]; phase Ia, baseline and C2D3 scans): 24 of 30
effects on CYP2B6 [3]: inhibitory effects
effects on CYP2C enzymes [4]: inhibitory effects
ER and Ki-67 levels in tumor specimens [5]: reduced ER and Ki-67 levels
patients with an increase in the thickness of endometrium compared to baseline ([6]; 10 patients in phase Ia with baseline and at least one follow-up scan): 9 (90%) n (%)
change in endometrial thickness, range ([6]; phase Ia): 0 to 11 mm
mean change in endometrial thickness ([6]; phase Ia): 4.4 mm
median change in endometrial thickness ([6]; phase Ia): 3.5 mm
tumor regression [7]: induced tumor regression
